# pIC50: −log10 of the molar value. Where a name gives a salt, the structure may show the parent alone.
# Tested on: LP-1 cell line
# Experiment: Cell-based pERK ELISA method, LP-1 cells
# Details: Homo sapiens, LP-1, read-out: IC50 less than 1 μM or at least 50% inhibition at a concentration of 1 μM, LP-1 pERK ELISA
# Experimental: LP-1 or JIM-1 multiple myeloma cells were seeded in 96 well plates at 1×10^6 cells/ml in 200 ul per well in serum free media. […] Cells were incubated for 16 h at 37° C. prior to the addition of a test compound for 30 minutes. Test compounds were administered at a 0.1% final DMSO concentration. […] ELISA plates and standards were prepared according o the standard DuoSet protocols and the relative amounts of pERK to total ERK in each sample calculated according to the standard curve.
# In particular, compounds of the invention were tested against the LP-1 cell line (DSMZ no.: ACC 41) derived from human multiple myeloma.
row,pIC50,SMILES
1,> 6.00,"O=C(NCC(F)(F)F)Nc1cccc(-c2cnc3cc(N4CCOCC4)ccn23)c1 [Example 108, 1-[3-(7-Morpholin-4-yl-imidazo[1,2-a]pyridin-3-yl)-phenyl]-3-(2,2,2-trifluoro-ethyl)-urea hydrochloride salt]"
2,> 6.00,"CCNC(=O)Nc1cccc(-c2cnc3cc(-c4ccc(NCCN5CCOCC5)nc4)ccn23)c1 [Example 109, 1-Ethyl-3-(3-{7-[6-(2-morpholin-4-yl-ethylamino)-pyridin-3-yl]-imidazo[1,2-a]pyridin-3-yl}-phenyl)-urea hydro-chloride salt]"
3,> 6.00,"CCNC(=O)Nc1cccc(-c2cnn3cc(-c4ccc(F)cc4)cnc23)c1 [Example 111, 1-Ethyl-3-{3-[6-(4-fluoro-phenyl)-pyrazolo[1,5-a]pyrimidin-3-yl]-phenyl}-urea]"
4,> 6.00,"Nc1ccc(-c2cnc3c(-c4cccc(NC(=O)NCC(F)(F)F)c4)cnn3c2)cn1 [Example 113, 1-{3-[6-(6-Amino-pyridin-3-yl)-pyrazolo[1,5-a]pyrimidin-3-yl]-phenyl}-3-(2,2,2-trifluoro-ethyl)-urea hydrochloride salt]"
5,> 6.00,"CCNC(=O)Nc1cccc(-c2cnn3cc(-c4ccc(N)nc4)cnc23)c1 [Example 114, 1-{3-[6-(6-Amino-pyridin-3-yl)-pyrazolo[1,5-a]pyrimidin-3-yl]-phenyl}-3-ethyl-urea hydrochloride salt]"
6,> 6.00,"CCNC(=O)Nc1cccc(-c2cnc3cc(-c4ccsc4)ccn23)c1 [Example 115, 1-Ethyl-3-[3-(7-thiophen-3-yl-imidazo[1,2-a]pyridine-3-yl)-phenyl]-urea formate salt]"
7,> 6.00,"O=C(NCC(F)(F)F)Nc1cccc(-c2cnn3cc(-c4ccc(F)cc4)cnc23)c1 [Example 123, 1-{3-[6-(4-Fluoro-phenyl)-pyrazolo[1,5-a]pyrimidin-3-yl]-phenyl}-3-(2,2,2-trifluoro-ethyl)-urea]"
8,> 6.00,"Cn1cc(-c2cnc3c(-c4cccc(NC(=O)NCC(F)(F)F)c4)cnn3c2)cn1 [Example 127, 1-{3-[6-(1-Methyl-1H-pyrazol-4-yl)-pyrazolo[1,5-a]pyrimidin-3-yl]-phenyl}-3-(2,2,2-trifluoro-ethyl)-urea]"
9,> 6.00,"Cn1cc(-c2ccn3c(-c4cccc(NC(=O)NCC(F)(F)F)c4)cnc3c2)cn1 [Example 128, 1-{3-[7-(1-Methyl-1H-pyrazol-4-yl)-imidazo[1,2-a]pyridin-3-yl]-phenyl}-3-(2,2,2-trifluoro-ethyl)-urea formate]"
10,> 6.00,"O=C(NCCF)Nc1cccc(-c2cnc3cc(-c4ccc(F)cc4)ccn23)c1 [Example 134, 1-(2-Fluoro-ethyl)-3-{3-[7-(4-fluoro-phenyl)-imidazo[1,2-a]pyridin-3-yl]-phenyl}-urea Hydrochloride]"
11,> 6.00,"CCNC(=O)Nc1cccc(-c2cnn3cc(-c4cnn(C)c4)cnc23)c1 [Example 135, 1-Ethyl-3-{3-[6-(1-methyl-1H-pyrazol-4-yl)-pyrazolo[1,5-a]pyrimidin-3-yl]-phenyl}-urea]"
12,> 6.00,"O=C(NCCF)Nc1cccc(-c2cnn3cc(-c4ccc(F)cc4)cnc23)c1 [Example 140, 1-(2-Fluoro-ethyl)-3-{3-[6-(4-fluoro-phenyl)-pyrazolo[1,5-a]pyrimidin-3-yl]-phenyl}-urea]"
13,> 6.00,"O=C(NCC(F)(F)F)Nc1cccc(-c2cnc3cc(-c4ccc5c(c4)OCO5)ccn23)c1 [Example 141, Hydrochloride]"
14,> 6.00,"COc1cc(-c2ccn3c(-c4cccc(NC(=O)NCC(F)(F)F)c4)cnc3c2)ccc1F [Example 142, 1-{3-[7-(4-Fluoro-3-methoxy-phenyl)-imidazo[1,2-a]pyridin-3-yl]-phenyl}-3-(2,2,2-trifluoro-ethyl)-urea Hydrochloride]"
15,> 6.00,"O=C(NCC(F)(F)F)Nc1cccc(-c2cnc3cc(-c4cccc(F)c4)ccn23)c1 [Example 143, 1-{3-[7-(3-Fluoro-phenyl)-imidazo[1,2-a]pyridin-3-yl]-phenyl}-3-(2,2,2-trifluoro-ethyl)-urea Hydrochloride]"
16,> 6.00,"O=C(NCC(F)(F)F)Nc1cccc(-c2cnc3cc(-c4ccccc4)ccn23)c1 [Example 149, 1-[3-(7-Phenyl-imidazo[1,2-a]pyridin-3-yl)-phenyl]-3-(2,2,2-trifluoro-ethyl)-urea Hydrochloride]"
17,> 6.00,"O=C(NCC(F)(F)F)Nc1cccc(-c2cnc3cc(-c4cccc(C(=O)N5CCOCC5)c4)ccn23)c1 [Example 150, 1-(3-{7-[3-(Morpholine-4-carbonyl)-phenyl]-imidazo[1,2-a]pyridin-3-yl}-phenyl)-3-(2,2,2-trifluoro-ethyl)-urea Hydrochloride]"
18,> 6.00,"COc1ncc(-c2cnc3c(-c4cccc(NC(=O)NCC(F)(F)F)c4)cnn3c2)cn1 [Example 151, 1-{3-[6-(2-Methoxy-pyrimidin-5-yl)-pyrazolo[1,5-a]pyrimidin-3-yl]-phenyl}-3-(2,2,2-trifluoro-ethyl)-urea]"
19,> 6.00,"O=C(NCC(F)(F)F)Nc1cccc(-c2cnn3cc(-c4cn[nH]c4)cnc23)c1 [Example 155, 1-{3-[6-(1H-Pyrazol-4-yl)-pyrazolo[1,5-a]pyrimidin-3-yl]-phenyl}-3-(2,2,2-trifluoro-ethyl)-urea Hydrochloride]"
20,> 6.00,"Cn1cc(-c2cnc3c(-c4cccc(NC(=O)NCC(F)(F)F)c4)cnn3c2)ccc1=O [Example 158, 1-{3-[6-(1-Methyl-6-oxo-1,6-dihydro-pyridin-3-yl)-pyrazolo[1,5-a]pyrimidin-3-yl]-phenyl}-3-(2,2,2-trifluoro-ethyl)-urea]"
21,> 6.00,"CCNC(=O)Nc1cccc(-n2cnc3cc(-c4ccc(F)cc4)ccc32)c1 [Example 159, 1-Ethyl-3-{3-[5-(4-fluoro-phenyl)-benzoimidazol-1-yl]-phenyl}-urea Hydrochloride]"
22,> 6.00,"O=C(NCC(F)(F)F)Nc1cccc(-c2cnn3cc(-c4cccc(C(=O)N5CCOCC5)c4)cnc23)c1 [Example 165, 1-(3-{6-[3-(Morpholine-4-carbonyl)-phenyl]-pyrazolo[1,5-a]pyrimidin-3-yl}-phenyl)-3-(2,2,2-trifluoro-ethyl)-urea]"
23,> 6.00,"CCNC(=O)Nc1cccc(-n2cnc3cc(-c4ccc(F)cc4)cnc32)c1 [Example 169, 1-Ethyl-3-{3-[6-(4-fluoro-phenyl)-imidazo[4,5-b]pyridin-3-yl]-phenyl}-urea]"
24,> 6.00,"O=C(NCC(F)(F)F)Nc1cccc(-c2cnc3cc(-c4ccc(F)nc4)ccn23)c1 [Example 174, 1-{3-[7-(6-Fluoro-pyridin-3-yl)-imidazo[1,2-a]pyridin-3-yl]-phenyl}-3-(2,2,2-trifluoro-ethyl)-urea]"
25,> 6.00,"O=C(NCC(F)(F)F)Nc1cccc(-n2cnc3cc(-c4ccc(F)cc4)ccc32)c1 [Example 175, 1-{3-[5-(4-Fluoro-phenyl)-benzoimidazol-1-yl]-phenyl}-3-(2,2,2-trifluoro-ethyl)-urea]"
26,> 6.00,"CCS(=O)(=O)N1CCN(c2ccn3c(-c4cccc(NC(=O)NCC(F)(F)F)c4)cnc3c2)CC1 [Example 177, 1-{3-[7-(4-Ethanesulfonyl-piperazin-1-yl)-imidazo[1,2-a]pyridin-3-yl]-phenyl}-3-(2,2,2-trifluoro-ethyl)-urea hydrochloride salt]"
27,> 6.00,O=C(NCC(F)(F)F)Nc1cccc(-n2cnc3cc(-c4ccc(F)cc4)cnc32)c1 [Example 179]
28,> 6.00,Cc1ccc(-c2cnc3c(-c4cccc(NC(=O)NCC(F)(F)F)c4)cnn3c2)o1 [Example 180]

# — US8895745B2, “Bicyclic heterocyclic compounds as FGFR inhibitors” (Astex Therapeutics Limited, priority 2006, dated 2014)
